l = locked nucleic acid (LNA); d = 2'-deoxy (DNA)
Legend:
Assay type in all cases: cell-based, human
[1] = tested on: miR-155; experiment: Dual luciferase reporter assay with miR-155 binding site in HeLa cells; conditions: 2 nM oligonucleotide, 10 nM miR-155 mimic, 50 ng reporter
Excerpt: To assess the activity of a miR-155 inhibitor, a dual luciferase reporter assay system was used. In brief, the binding site for miR-155 was cloned into the 3′ UTR of the Renilla luciferase gene located within the commercially-available psiCHECK-2 vector system (Promega). In the absence of a miR-155 inhibitor, the expression of Renilla luciferase protein is repressed by a miR-155 mimic. In the presence of a miR-155 inhibitor, the expression of Renilla luciferase protein is de-repressed. […] Expression of either Renilla or firefly luciferase is measured through detection of light emitted by the luciferase protein.
50 ng of the dual luciferase reporter plasmid containing the miR-155 binding site was transfected into HeLa cells without a miR-155 mimic (“Reporter” only), with 10 nM miR-155 mimic (“Reporter+mimic”), with 10 nM miR-155 mimic and 2 nM of the control oligonucleotide, or with 10 nM miR-155 mimic and 2 nM of a test miR-155 oligonucleotide inhibitor of 11-14 nucleotide lengths (Table 4). The miR-155 mimic was purchased from Dharmacon (miRIDIAN microRNA Human hsa-miR-155-5p mimic; Accession number MIMAT0000646; catalog # C-300647-05-0005) and contains the mature miRNA sequence: -[…]-(SEQ ID NO: 121). The control oligonucleotide used in the experiment had the following sequence: 5′-1Cs.dTs.dAs.1Gs.dAs.1As.dAs.1Gs.1As.dGs.1Ts.dAs.1Gs.1A-3′ (SEQ ID NO: 122).

[2] = tested on: miR-155-5p; experiment: Whole genome expression profiling of Sézary syndrome cell line HuT78; conditions: 8 days
Description: (§1) The activity of antimiR-155 compound 4 (SEQ ID NO: 25) was further investigated by treating the third mycosis fungoides cell line, MyLa, with compound 4 (SEQ ID NO: 25) for 4 days and 8 days and profiling the changes in gene expression. To test the specificity of compound 4 (SEQ ID NO: 25), cells of the Sézary syndrome cell line (HuT78) were treated with compound 4 (SEQ ID NO: 25) for 8 days and the changes in gene expression were profiled. Genes that are statistically changed with a false discovery rate (FDR) corrected p-value of <0.05 in response to compound 4 (SEQ ID NO: 25) in three mycosis fungoides cell lines, HuT102, MJ, and My-La, are depicted in the heat map as described above. The total number of genes in the heat map is 324.

[3] = tested on: My-La cells; experiment: Caspase 3/7 activity in My-La cells; conditions: compared to compound 3
Excerpt: (§2) FIGS. 17A and 17B show proliferation and activation of caspase 3/7 over time with compounds 3 (SEQ ID NO: 23) and 4 (SEQ ID NO: 25).

[4] = tested on: HuT102 cells; experiment: Proliferation (cell number by ATP level) of HuT102 cells; conditions: HuT-102 cells over time; compared with bexarotene
Description: (§3) Since the level of ATP correlates directly with cell number, ATP was measured to determine the cell number. […] The reduction in cell number was accompanied by an increase in apoptosis as measured by caspase 3/7 activity (FIG. 14B). The caspase 3 and 7 proteins are members of the cysteine aspartic acid-specific protease (caspase) family. The caspase family plays key effector roles in apoptosis in mammalian cells. Caspase activity was normalized to ATP levels, as all cells have a low level of basal caspase activity that can confound the results if not normalized appropriately.

[5] = tested on: My-La cells; experiment: Proliferation of My-La cells; conditions: compared to compound 3
Excerpt: as §2

[6] = tested on: HuT102 and MyLa cell lines; experiment: Programmed cell death (apoptosis) of CTCL cells after passive uptake; conditions: compared to compound 3
Description: (§4) Passive uptake of antimiR-155 compounds by CTCL cells produced a significant reduction in cellular proliferation and induced programmed cell death.
as §3

[7] = tested on: miR-155-5p; experiment: Real time PCR of miR-155 direct target genes (four-gene signature) in mycosis fungoides cell lines MJ, HuT102, My-La; conditions: for gene expression signature of four direct miR-155-5p targets versus untreated cells: MJ and HuT102 cells, 10 μM, 72 hours; for target de-repression: both HuT102 and MyLa cell lines, compared to compound 3; for antimiR activity by four-gene signature (Bach1, Jarid2, Picalm, Ship1): cumulative across 2, 10 and 50 μM and three mycosis fungoides cell lines, compared to compounds 1 and 3
Description: CTCL cell lines were cultured in complete growth medium with the addition of antimiR-155 compound 1 (SEQ ID NO: 27), compound 2 (SEQ ID NO: 22), compound 3 (SEQ ID NO: 23), and compound 4 (SEQ ID NO: 25) at concentrations ranging from 2 μM to 50 μM. The antimiRs were added to the medium without any additional components to enhance cellular uptake. Cells were harvested after 72 hours of treatment and total RNA was purified. Real time PCR was performed for 13 direct gene targets of miR-155 (Worm et al. 2009; O'Connell et al. 2010; Zhang et al. 2012; and miRagen unpublished data). The relative fold-change in the expression of the 13 genes in the antimiR-treated cells compared to the untreated cells was calculated. […] Four predicted direct targets that lacked expression in at least one cell line were omitted. The gene expression fold-changes were log10-transformed, plotted on a grayscale, representing the highest relative increase in gene expression, and conversely, the greatest reduction in gene expression.
Four direct gene targets of miR-155-5p (Bach1, Jarid2, Picalm, and Ship1) were chosen for additional analysis, as these four genes were modulated by antimiR-155 in all three mycosis fungoides cell lines (MJ, HuT102, and My-La). These genes were chosen to represent the gene expression signature for antimiR activity in vitro. Additionally, the four-gene signature was used to compare the activity of the antimiR compounds. These gene changes were reproducible over three independent experiments with cells of varying passage numbers. FIGS. 3, 4, 5, 6, and 7 show the fold-change results of this four-gene signature in the HuT102, MJ, HH, My-La, and Hut78 cell lines, respectively. * p-value <0.0001 vs untreated by nonparametric Mann-Whitney test. The Mann-Whitney test was chosen because the variances are unequal between the treatments compared to untreated cells.
The control oligonucleotide was a 14-nucleotide antimiR targeting a C. elegans miRNA not expressed in mammals (control 1). The second oligo is a scramble of the 14-nucleotide sequence of antimiR-155 compound 4 (control 2). The MJ and HuT102 cell lines were incubated with 10 μM antimiR-155 compounds 3 (SEQ ID NO: 23) or 4 (SEQ ID NO: 25) or the two control oligos for 72 hours.

[8] = tested on: HuT102 cells; experiment: Apoptosis (caspase 3/7 activity) in HuT102 cells
Description: as §3
HuT102 cells were treated with 0.25 μM SAHA and 10 μM compound 3 (SEQ ID NO: 23) or 4 (SEQ ID NO: 25), individually or in combination. Cells were harvested daily to measure ATP levels and caspase 3/7 activity. A similar experiment was performed with 0.50 μM SAHA.

[9] = tested on: miR-155-5p; experiment: Whole genome expression profiling of mycosis fungoides cell lines (MJ, HuT102, MyLa)
Description: To gain a more complete understanding of the molecular consequences of miR-155 inhibition in mycosis fungoides cell lines, whole genome transcriptome profiling was performed on MJ and HuT102 cell lines treated with antimiR-155 compounds 3 (SEQ ID NO: 23) or 4 (SEQ ID NO: 25) for 4 days (96 hours) or 8 days. The statistically-significant gene expression signature was defined by one-way ANOVA for antimiR-treated cells compared to untreated cells at the same time point. […] The fold-change results are shown in FIGS. 9 and 10 as heat maps, as described for FIG. 2.
as §1

[10] = tested on: HuT102 and MyLa cell lines; experiment: Cellular proliferation of CTCL cells after passive uptake; conditions: compared to compound 3
Description: as §4, §3

Substance | apoptotic activity [6] | gene expression signature of four direct miR-155-5p targets versus untreated cells [7] | target de-repression [7] | antimiR activity by four-gene signature (Bach1, Jarid2, Picalm, Ship1) [7] | inhibition of proliferation [10] | other results
5′-1Cs.dTs.dAs.1Gs.dAs.1As.dAs.1Gs.1As.dGs.1Ts.dAs.1Gs.1A-3′ (CTAGAAAGAGTAGA; LNA/DNA mix, phosphorothioate backbone; miR-155 control oligo 11317; (1)..(14) May be joined through phosphorothioate bonds; modified_base (1)..(1) May be locked nucleic acid cytidine; modified_base (4)..(4) May be locked nucleic acid guanosine; modified_base (6)..(6) May be locked nucleic acid adenosine; modified_base (8)..(8) May be locked nucleic acid guanosine; modified_base (9)..(9) May be locked nucleic acid adenosine; modified_ba) [control oligonucleotide, control oligonucleotide used in the dual luciferase reporter experiment] | – | – | – | – | – | de-repression of Renilla luciferase expression [1]: did not de-repress the expression of luciferase
5′-lCs.dAs.lCs.dGs.dAs.lTs.lTs.dAs.lGs.dCs.lAs.lTs.lTs.lA-3′ (CACGATTAGCATTA; sugars from the 5' end ldlddlldldllll, all phosphorothioate, methylation of C not given here) [compound 4] | greater apoptotic activity | statistically significantly different from that of untreated cells | greater target de-repression | more active | greater inhibition of proliferation | change in gene expression [2]: did not show much change in the gene expression; activation of caspase 3/7 over time [3]: greater activity; effect on cell number (ATP) [4]: comparable to that seen with bexarotene; proliferation over time [5]: greater activity; apoptosis (caspase 3/7 activity) in combination with SAHA ([8]; HuT102, 10 μM compound combined with 0.25 or 0.5 μM SAHA, compared to each treatment alone): increased apoptosis; induction of apoptosis (caspase 3/7 activity normalized to ATP) ([8]; HuT-102 cells over time, compared with bexarotene): greater induction of apoptosis than bexarotene; genes up-regulated or down-regulated in all three mycosis fungoides cell lines ([9]; Day 4 and Day 8 signatures combined, Table 2): 587 genes; magnitude of gene regulation ([9]; MJ and HuT102, day 4 and day 8, heat map intensity): greater magnitude of gene regulation
5′-lCs.dGs.lAs.lTs.lTs.dAs.lGs.dCs.lAs.lTs.lTs.lA-3′ (CGATTAGCATTA; sugars from the 5' end ldllldldllll, all phosphorothioate, methylation of C not given here) [compound 3] | – | statistically significantly different from that of untreated cells | – | – | – | –
5′-lCs.dGs.lAs.lTs.lTs.lAs.lGs.dCs.lAs.lTs.lTs.lA-3′ (CGATTAGCATTA; sugars from the 5' end l1 d1 l5 d1 l4, all phosphorothioate, methylation of C not given here) [compound 2] | greater apoptotic activity | – | greater target de-repression | more active | greater inhibition of proliferation | –

Reference: US9771585B2, “miR-155 inhibitors for treating cutaneous T cell lymphoma (CTCL)” (miRagen Therapeutics, Inc., priority 2015, dated 2017)
